The target in assay [1] is Mycobacterium tuberculosis glutamine synthetase (MtGS) (Mycobacterium tuberculosis, UniProt P9WN39). Description: MtGS inhibition screening and IC50 determination. The format is biochemical. The following applies: for inhibitory activity in the MtGS enzymatic assay (in words): inhibition screening at 25 μM; for fold increase of affinity/potency (IC50) compared to 7a: MtGS IC50 ratio vs 7a.

Assay [2] deals with MtGS. The following applies: read-out: IC50 obtained in the HTS study; HTS assay conditions; cited from earlier work.

Sequence of Mycobacterium tuberculosis glutamine synthetase (MtGS) (P9WN39 whole entry): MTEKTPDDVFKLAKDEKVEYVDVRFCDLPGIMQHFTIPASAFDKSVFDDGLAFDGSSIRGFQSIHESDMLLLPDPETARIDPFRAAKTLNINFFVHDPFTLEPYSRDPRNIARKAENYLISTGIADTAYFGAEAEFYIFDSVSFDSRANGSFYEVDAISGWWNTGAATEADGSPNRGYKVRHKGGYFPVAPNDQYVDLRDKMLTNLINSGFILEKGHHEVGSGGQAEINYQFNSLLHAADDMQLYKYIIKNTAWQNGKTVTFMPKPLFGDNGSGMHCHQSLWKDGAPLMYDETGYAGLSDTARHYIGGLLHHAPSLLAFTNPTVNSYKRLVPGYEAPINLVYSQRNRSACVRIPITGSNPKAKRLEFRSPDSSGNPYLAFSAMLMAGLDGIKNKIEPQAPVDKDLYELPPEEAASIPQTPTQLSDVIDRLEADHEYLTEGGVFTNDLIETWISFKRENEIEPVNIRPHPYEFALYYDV

In general, IC50 refers to the point on the concentration scale where inhibition reaches its midpoint. As for `COc1ccc2cc(-c3nc(C(C)(C)C)[nH]c3-c3ccncc3)ccc2c1` [Compound 7a], the “fold higher IC50 than the IC50 obtained in the HTS study” value in assay [1] is 30 fold. The IC50 in assay [2] is 100 nM.
`COc1ccc2cc(-c3nc(C)[nH]c3-c3ccncc3)ccc2c1` [Compound 7f]: the “inhibitory activity in the MtGS enzymatic assay (in words)” value (shortened to “inhibitory activity”) in assay [1] was “inactive”.
Regarding `COc1ccc2cc(-c3nc[nH]c3-c3ccncc3)ccc2c1` [Compound 7g], the “inhibitory activity” value in assay [1] was “inactive”.
For `COc1ccc2cc(-c3nc(COCc4ccccc4)[nH]c3-c3ccncc3)ccc2c1` [Compound 7h], the “inhibitory activity” value in assay [1] is “did not show any inhibitory activity”.
On to `COc1ccc2cc(-c3nc(CO)[nH]c3-c3ccncc3)ccc2c1` [Compound 7i], for which, in assay [1], the “inhibitory activity” value was “inactive”.
On to `COc1ccc2cc(-c3nc(C(C)(C)C)[nH]c3-c3ccnc(F)c3)ccc2c1` [Compound 10], for which the “fold increase of affinity/potency (IC50) compared to 7a” value in assay [1] is on record as roughly 2.5 fold.
`COc1ccc2cc(-c3nc(C(C)(C)C)[nH]c3-c3ccnc(N)c3)ccc2c1` [Compound 11a, 4-(2-tert-Butyl-4-(6-methoxynaphthalen-2-yl)-1H-imidazol-5-yl)pyridin-2-amine]: the “fold increase of affinity/potency (IC50) compared to 7a” value in assay [1] is recorded as “over 60 fold”.
As for `CNc1cc(-c2[nH]c(C(C)(C)C)nc2-c2ccc3cc(OC)ccc3c2)ccn1` [Compound 11b], in assay [1], the “fold loss in activity compared to 11a” value worked out at 100 fold.
On to `COc1ccc2cc(-c3nc(C(C)(C)C)[nH]c3-c3ccnc(N(C)C)c3)ccc2c1` [Compound 11c], for which, in assay [1], the “inhibitory activity” value is “inactive”.

Source of the values: PMC3381009 (Journal of Medicinal Chemistry, 2012).
